Species: Rattus norvegicus
Assay: Open TG-GATES - Regimen: Single
Assay type: toxicity, organism-based, Sprague-Dawley
Parameters: regimen Single, gender Male, age 6 weeks
Conditions: in vivo, po, 1000 mg/kg, route gavage, dose level Middle; for APTT / Bas / Eos / Fbg / Hb / Ht / Lym / MCH / MCHC / MCV / Mono / Neu / Plat / RBC / Ret / WBC: tissue Blood; for KIDNEY_L / KIDNEY_R / KIDNEY_TOTAL: tissue Kidney; for LIVER: tissue Liver; for ALP / ALT / AST / BUN / CRE / Ca / Cl / DBIL / GLC / IP / K / LDH / Na / PL / RALB / TBIL / TC / TG / TP / gamma-GTP: tissue Plasma

## CC(=O)Oc1ccccc1C(=O)O [ASPIRIN]
3 h
  TERMINAL_BW: 217.1 g
  APTT: 19 s
  Bas: 0%
  Eos: 1%
  Fbg: 217.4 mg/dL
  Hb: 13.6 g/dL
  Ht: 37.9%
  Lym: 69.4%
  MCH: 21.9 pg
  MCHC: 35.9%
  MCV: 60.8 fL
  Mono: 2.8%
  Neu: 25.4%
  Plat: 121 x10_4/uL
  RBC: 624.8 x10_4/ul
  Ret: 8%
  WBC: 72.1 x10_2/uL
  KIDNEY_L: 0.9 g
  KIDNEY_R: 1 g
  KIDNEY_TOTAL: 1.9 g
  LIVER: 8.8 g
  ALP: 835 IU/L
  ALT: 44.4 IU/L
  AST: 79 IU/L
  BUN: 15.8 mg/dL
  CRE: 0.4 mg/dL
  Ca: 8.7 mg/dL
  Cl: 104 meq/L
  DBIL: 0.06 mg/dL
  GLC: 203.8 mg/dL
  IP: 8.3 mg/dL
  K: 3.4 meq/L
  LDH: 205.8 IU/L
  Na: 141 meq/L
  PL: 88.8 mg/dL
  RALB: 3.4 g/dL
  TBIL: 0.1 mg/dL
  TC: 54.6 mg/dL
  TG: 26.2 mg/dL
  TP: 5.5 g/dL
  gamma-GTP: 1 IU/L
6 h
  TERMINAL_BW: 218.6 g
  APTT: 19.9 s
  Bas: 0%
  Eos: 0.6%
  Fbg: 233.4 mg/dL
  Hb: 13.7 g/dL
  Ht: 37.9%
  Lym: 66%
  MCH: 21.5 pg
  MCHC: 36.2%
  MCV: 59.5 fL
  Mono: 3.4%
  Neu: 29%
  Plat: 132.5 x10_4/uL
  RBC: 637.2 x10_4/ul
  Ret: 7.9%
  WBC: 97.1 x10_2/uL
  KIDNEY_L: 1 g
  KIDNEY_R: 0.9 g
  KIDNEY_TOTAL: 1.9 g
  LIVER: 8.5 g
  ALP: 820.8 IU/L
  ALT: 35.4 IU/L
  AST: 78.2 IU/L
  BUN: 14.8 mg/dL
  CRE: 0.4 mg/dL
  Ca: 8.3 mg/dL
  Cl: 104.2 meq/L
  DBIL: 0.056 mg/dL
  GLC: 209.4 mg/dL
  IP: 8.1 mg/dL
  K: 3.3 meq/L
  LDH: 236.6 IU/L
  Na: 140.2 meq/L
  PL: 108 mg/dL
  RALB: 3.6 g/dL
  TBIL: 0.098 mg/dL
  TC: 68.6 mg/dL
  TG: 16.8 mg/dL
  TP: 5.7 g/dL
  gamma-GTP: 1 IU/L
9 h
  TERMINAL_BW: 217.1 g
  APTT: 21.6 s
  Bas: 0%
  Eos: 1%
  Fbg: 232.4 mg/dL
  Hb: 13.7 g/dL
  Ht: 38.1%
  Lym: 69.4%
  MCH: 21.4 pg
  MCHC: 35.8%
  MCV: 59.7 fL
  Mono: 2.4%
  Neu: 27%
  Plat: 128.3 x10_4/uL
  RBC: 638.6 x10_4/ul
  Ret: 7.8%
  WBC: 93.3 x10_2/uL
  KIDNEY_L: 1 g
  KIDNEY_R: 0.9 g
  KIDNEY_TOTAL: 1.9 g
  LIVER: 7.5 g
  ALP: 903.8 IU/L
  ALT: 33.2 IU/L
  AST: 79.8 IU/L
  BUN: 13.2 mg/dL
  CRE: 0.4 mg/dL
  Ca: 8.5 mg/dL
  Cl: 106.4 meq/L
  DBIL: 0.05 mg/dL
  GLC: 202.4 mg/dL
  IP: 7.7 mg/dL
  K: 3.2 meq/L
  LDH: 227.2 IU/L
  Na: 140.6 meq/L
  PL: 102.4 mg/dL
  RALB: 3.5 g/dL
  TBIL: 0.098 mg/dL
  TC: 62.8 mg/dL
  TG: 9.2 mg/dL
  TP: 5.5 g/dL
  gamma-GTP: 1.2 IU/L
24 h
  TERMINAL_BW: 217 g
  APTT: 29.4 s
  Bas: 0.4%
  Eos: 1%
  Fbg: 225 mg/dL
  Hb: 14.4 g/dL
  Ht: 39.3%
  Lym: 72%
  MCH: 22.1 pg
  MCHC: 36.6%
  MCV: 60.4 fL
  Mono: 2.2%
  Neu: 24.2%
  Plat: 131.6 x10_4/uL
  RBC: 650.8 x10_4/ul
  Ret: 7.1%
  WBC: 89.6 x10_2/uL
  KIDNEY_L: 0.9 g
  KIDNEY_R: 0.9 g
  KIDNEY_TOTAL: 1.9 g
  LIVER: 8.1 g
  ALP: 933.8 IU/L
  ALT: 38 IU/L
  AST: 110 IU/L
  BUN: 14.8 mg/dL
  CRE: 0.4 mg/dL
  Ca: 8.7 mg/dL
  Cl: 105.6 meq/L
  DBIL: 0.052 mg/dL
  GLC: 214 mg/dL
  IP: 7.3 mg/dL
  K: 3.5 meq/L
  LDH: 227.6 IU/L
  Na: 140.8 meq/L
  PL: 75.4 mg/dL
  RALB: 3.5 g/dL
  TBIL: 0.1 mg/dL
  TC: 40.2 mg/dL
  TG: 23.4 mg/dL
  TP: 5.7 g/dL
  gamma-GTP: 1.6 IU/L

— ChEMBL document CHEMBL3885861, “Open TG-GATES”
